Source: paper PMC10051292, “Neoprzewaquinone A Inhibits Breast Cancer Cell Migration and Promotes Smooth Muscle Relaxation by Targeting PIM1 to Block ROCK2/STAT3 Pathway” (International Journal of Molecular Sciences, 2023)

Target: PIM1 (Homo sapiens, UniProt P11309)
Experiment: ADP-Glo in vitro kinase assay; supported by CETSA western blot in MDA-MB-231 (about […] °C stabilization)
Assay type: biochemical

Chain of PIM1 (P11309 whole entry): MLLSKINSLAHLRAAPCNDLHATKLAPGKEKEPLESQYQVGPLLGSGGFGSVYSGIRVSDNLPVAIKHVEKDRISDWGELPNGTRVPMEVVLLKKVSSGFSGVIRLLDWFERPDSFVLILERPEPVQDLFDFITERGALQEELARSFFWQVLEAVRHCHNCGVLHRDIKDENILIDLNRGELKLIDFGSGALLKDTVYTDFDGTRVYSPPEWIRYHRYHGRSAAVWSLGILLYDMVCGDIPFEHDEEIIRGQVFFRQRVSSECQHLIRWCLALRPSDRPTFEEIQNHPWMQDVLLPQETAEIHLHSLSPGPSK

Molecule `C=C1CCCc2c(ccc3c2C(=O)C(=O)c2c(C)coc2-3)/C(C)=C/CCc2c1ccc1c2C(=O)C(=O)c2c(C)coc2-1` [NEO, Neoprzewaquinone A] has an IC50 of 560 nM.
